Reference: patent US20240300928A1, “GLP-1 RECEPTOR AGONIST, PHARMACEUTICAL COMPOSITION COMPRISING SAME, AND METHOD FOR PREPARING SAME” (LG CHEM, LTD., priority 2021, published 2024)

Molecular target: T1, hGLP-1R (Homo sapiens, UniProt P43220)
T1 construct: expressed in transfected cells; host or cells: CHO-K1 (hGLP-1R and CRE-luciferase reporter)
Assay: GLP-1R agonist activity measurement (cell-based luciferase assay)
Details: CHO-K1/hGLP-1R/CRE-luciferase cell line, 4 h treatment, Bright-Glo luminescence
Description: Experimental Example 1: GLP-1R Agonist Activity Measurement (Cell-Based Luciferase Assay)
The CHO-K1/hGLP-1R/CRE-luciferase cell line was seeded at 15000 cells in a 96-well plate. As a medium, Ham's F-12 Nutrient medium was used. After culturing for 18 hours in a 5% CO2 incubator maintained at 37° C., the drug was treated. Each drug plated at 9 concentrations was dissolved in DMEM/F-12+1% FBS medium and treated with 100 ul of each cell line. After culturing for 4 h, 30 ul of assay reagent was added to each well using the Bright-Glo™ luciferase assay system kit. After the plate was stored at room temperature for 15 min, luminescence was measured with a SpectraMax M5 instrument.

T1 sequence (P43220 24-463): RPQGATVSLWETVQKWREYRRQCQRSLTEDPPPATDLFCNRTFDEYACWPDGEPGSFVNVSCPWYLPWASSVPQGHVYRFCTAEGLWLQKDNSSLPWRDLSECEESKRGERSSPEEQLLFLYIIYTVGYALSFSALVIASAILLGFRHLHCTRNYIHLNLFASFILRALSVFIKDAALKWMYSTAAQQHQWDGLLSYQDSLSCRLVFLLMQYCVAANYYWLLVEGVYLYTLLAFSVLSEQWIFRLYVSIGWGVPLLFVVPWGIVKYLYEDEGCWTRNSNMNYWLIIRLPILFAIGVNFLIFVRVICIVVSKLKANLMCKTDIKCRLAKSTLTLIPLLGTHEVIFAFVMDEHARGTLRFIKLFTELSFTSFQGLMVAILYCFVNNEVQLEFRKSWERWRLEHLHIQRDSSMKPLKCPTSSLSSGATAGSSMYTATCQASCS

| SMILES | EC50 [nM] |
| --- | --- |
| O=C(O)c1ccc2nc(Cc3ccc(-c4cccc(OCC56CCC(CC5)CC6)n4)cc3)n(C[C@@H]3CCO3)c2c1 [Example 13, (S)-2-(4-(6-(bicyclo[2.2.2]octan-1-ylmethoxy)pyridin-2-yl)benzyl)-1-(oxetan-2-ylmethyl)-1H-benzo[d]imidazol-6-carboxylic acid] | > 80 |
| CCn1cncc1Cn1c(Cc2ccc(-c3cccc4c3OC(C)(c3ccc(Cl)cc3F)O4)c(F)c2)nc2ccc(C(=O)O)cc21 (stereo not shown) [Example 11, 2-(4-(2-(4-chloro-2-fluorophenyl)-2-methylbenzo[d][1,3]dioxol-4-yl)-3-fluorobenzyl)-1-((1-ethyl-1H-imidazol-5-yl)methyl)-1H-benzo[d]imidazol-6-carboxylic acid] | 0.0256 |
| CCCn1cnnc1Cn1c(Cc2ccc(-c3cccc4c3OC(C)(c3ccc(Cl)cc3F)O4)c(F)c2)nc2ccc(C(=O)O)cc21 (stereo not shown) [Example 9, 2-(4-(2-(4-chloro-2-fluorophenyl)-2-methylbenzo[d][1,3]dioxol-4-yl)-3-fluorobenzyl)-1-((4-propyl-4H-1,2,4-triazol-3-yl)methyl)-1H-benzo[d]imidazol-6-carboxylic acid] | 0.772 |
| O=C(O)c1ccc2nc(Cc3ccc(-c4cccnc4OCc4ccc(Cl)cc4F)cc3)n(C[C@@H]3CCO3)c2c1 [Example 1, (S)-2-(4-(2-((4-chloro-2-fluorobenzyl)oxy)pyridin-3-yl)benzyl)-1-(oxetan-2-ylmethyl)-1H-benzo[d]imidazol-6-carboxylic acid] | 0.316 |
| O=C(O)c1ccc2nc(Cc3ccc(-c4cccnc4OCc4ccc(Cl)cc4F)cc3)n(Cc3cnco3)c2c1 [Example 6, 2-(4-(2-((4-chloro-2-fluorobenzyl)oxy)pyridin-3-yl)benzyl)-1-(oxazol-5-ylmethyl)-1H-benzo[d]imidazol-6-carboxylic acid] | 3.5 |
| CC1(c2ccc(Cl)cc2F)Oc2cccc(-c3ccc(Cc4nc5ccc(C(=O)O)cc5n4C[C@@H]4CCO4)cc3)c2O1 (stereo partly drawn) [Example 2, 2-(4-(2-(4-chloro-2-fluorophenyl)-2-methylbenzo[d][1,3]dioxol-4-yl)benzyl)-1-(((S)-oxetan-2-yl)methyl)-1H-benzo[d]imidazol-6-carboxylic acid] | 0.108 |
| CCCn1cnnc1Cn1c(Cc2ccc(-c3cccc4c3OC(C)(c3ccc(Cl)cc3F)O4)cc2)nc2ccc(C(=O)O)cc21 (stereo not shown) [Example 8, 2-(4-(2-(4-chloro-2-fluorophenyl)-2-methylbenzo[d][1,3]dioxol-4-yl)benzyl)-1-((4-propyl-4H-1,2,4-triazol-3-yl)methyl)-1H-benzo[d]imidazol-6-carboxylic acid] | 0.914 |
| CC1(c2ccc(Cl)cc2F)Oc2cccc(-c3ccc(Cc4nc5ccc(C(=O)O)cc5n4C[C@@H]4CCCO4)cc3)c2O1 (stereo partly drawn) [Example 12, 2-(4-(2-(4-chloro-2-fluorophenyl)-2-methylbenzo[d][1,3]dioxol-4-yl)benzyl)-1-(((S)-tetrahydrofuran-2-yl)methyl)-1H-benzo[d]imidazol-6-carboxylic acid] | 0.223 |
| CC1(c2ccc(Cl)cc2F)Oc2cccc(-c3ccc(Cc4nc5ccc(C(=O)O)cc5n4Cc4cnco4)cc3)c2O1 (stereo not shown) [Example 4, 2-(4-(2-(4-chloro-2-fluorophenyl)-2-methylbenzo[d][1,3]dioxol-4-yl)benzyl)-1-(oxazol-5-ylmethyl)-1H-benzo[d]imidazol-6-carboxylic acid] | 0.278 |
| CCCn1cnnc1Cn1c(Cc2ccc(-c3cccnc3OCc3ccc(Cl)cc3F)cc2)nc2ccc(C(=O)O)cc21 [Example 7, 2-(4-(2-((4-chloro-2-fluorobenzyl)oxy)pyridin-3-yl)benzyl)-1-((4-propyl-4H-1,2,4-triazol-3-yl)methyl)-1H-benzo[d]imidazol-6-carboxylic acid] | > 80 |
| CC1(c2ccc(Cl)cc2F)Oc2cccc(-c3ccc(Cc4nc5ccc(C(=O)O)cc5n4C[C@@H]4CCO4)cc3F)c2O1 (stereo partly drawn) [Example 3, 2-(4-(2-(4-chloro-2-fluorophenyl)-2-methylbenzo[d][1,3]dioxol-4-yl)-3-fluorobenzyl)-1-(((S)-oxetan-2-yl)methyl)-1H-benzo[d]imidazol-6-carboxylic acid] | 0.041 |
| CCn1cncc1Cn1c(Cc2ccc(-c3cccc4c3OC(C)(c3ccc(Cl)cc3F)O4)cc2)nc2ccc(C(=O)O)cc21 (stereo not shown) [Example 10, 2-(4-(2-(4-chloro-2-fluorophenyl)-2-methylbenzo[d][1,3]dioxol-4-yl)benzyl)-1-((1-ethyl-1H-imidazol-5-yl)methyl)-1H-benzo[d]imidazol-6-carboxylic acid] | 0.0216 |
| CC1(c2ccc(Cl)cc2F)Oc2cccc(-c3ccc(Cc4nc5ccc(C(=O)O)cc5n4Cc4cnco4)cc3F)c2O1 (stereo not shown) [Example 5, 2-(4-(2-(4-chloro-2-fluorophenyl)-2-methylbenzo[d][1,3]dioxol-4-yl)-3-fluorobenzyl)-1-(oxazol-5-ylmethyl)-1H-benzo[d]imidazol-6-carboxylic acid] | 0.16 |
